In patent US4576942A, “Anti-allergic and anti-inflammatory bi- and tri- cyclo-1,4-thiazine derivatives, composition, and method of use therefor” (USV Pharmaceutical Corp., priority 1984, dated 1986):
Like-named read-outs stand apart in the source and are kept apart here.

What was measured:
5-lipoxygenase pathway = assay: Inhibitors of the Lipoxygenase Pathway (LOX), [14C]-5-HETE formation in rat neutrophils; type: cell-based; design: key to LOX degree of activity: I: inactive; L: low activity; M: moderate activity; H: high activity; conditions: for LOX degree of activity: class symbol in the LOX I50 column; for IC50: Neutrophil
Method: The following protocol describes an assay to detect inhibitors of the lipoxygenase pathway. Such inhibitors are believed to be capable of modulating the biosynthesis of the leukotrienes, a property believed to be useful in treating asthma and inflammatory disease states.
A suspension of rat neutrophils in buffer is incubated for 3 minutes at 30° C. with [^14 C]-arachidonic acid (AA) and Calcium Ionophore A23187. Citric Acid (2M) is used to quench the reaction. Following the addition of a trace amount of (^3 H)-5-HETE together with an excess of unlabeled 5-HETE to each tube, the mixture is extracted with chloroform/methanol. The organic layer is washed with dilute acid and an aliquot is transferred to glass tubes and dried. The residue is dissolved in a small volume of chloroform and an aliquot is spotted on silica gel TLC sheets, which are developed with an ethyl acetate/isoctane/water/acetic acid solvent system. The 5-HETE spots are visualized with iodine, cut out and placed in scintillation vials for counting. After adjusting for the extraction efficiency, the amount (pmole) of [^14 C]-5-HETE in each of the tubes is quantitated. The net pmoles of 5-HETE are obtained by substracting the pmoles of 5-HETE in the tubes containing buffer alone (blank) for the pmoles of 5-HETE in the tubes containing […]. The ability of the test compounds to modulate the activity of this enzyme is determined by a decrease or increase in the net amount of 5-HETE produced.

[1] = tested on: leukotriene C4-induced contraction of guinea pig peripheral strips; assay: SRS-A (slow-reacting substance of anaphylaxis) antagonists, leukotriene C4-induced contraction of guinea pig peripheral lung strips; type: cell-based; design: key to SRS-A degree of inhibitory activity: I: inactive; L: low activity; M: moderate activity; H: high activity; conditions: for SRS-A degree of inhibitory activity: 0.2 nM leukotriene C4, class symbol in the SRS-A I50 column; for IC50: Cavia porcellus, 0.2 nM leukotriene C4, 37° C., read-out: SRS-A I50 (concentration required for 50% inhibition of 0.2 nM leukotriene C4-induced contraction)
Method: Leukotrienes, the products of the 5-lipoxygenase pathway of arachidonic acid metabolism, are potent contractile agents with a variety of smooth muscle preparations. […] The following protocol describes an in vitro assay used to test compounds which specifically antagonize the actions of leukotrienes.
Peripheral strips of guinea pig lungs are prepared and hung in tissue baths (Metro # ME-5505, 10 ml) according to the published procedure (Proc. Nat'l Acad. Sci, U.S.A. Volume 77, pp. 4354-4358, 1980). The strips are thoroughly rinsed in Assay Buffer and then connected with surgical silk thread to the support rods from the tissue baths. The rods are adjusted in the baths and the strips connected to the pressure transducers (Grass FT 103 or Gould UC-3). The tissue baths are aerated with 95% oxygen-5% carbon dioxide and maintained at 37° C. The Assay Buffer has been made as follows: For each liter of buffer the following are added to approximately 800 ml of water distilled in glass--6.87 g. NaCl, 0.4 g. KCl, 2.1 g. NaHCO3, 0.14 g, NaH2 PO4.H2 O, 0.21 g. MgSO4.7H2 O, and 2.0 g. D-glucose. Then a solution of 0.368 g. CaCl2.2H2 O in 100 ml glass-distilled water is slowly added to the buffer. Sufficient water is added to adjust the volume to one liter, and the solution is aerated with 95% oxygen-5% carbon dioxide. Usually 10 liters of buffer are used for an experiment with 4 tissues.
After the tissues have been repeatedly washed and allowed to equilibrate in the tissue bath, they are challenged with 1 uM histamine. After maximum contractions have been obtained, the tissues are washed, and allowed to relax back to baseline tension. This histamine challenge procedure is repeated at least 1 to 2 more times to obtain a repeatable control response. The average response to 1 uM histamine for each tissue is used to normalize all other challenges.
Responses of each tissue to a pre-determined concentration of leukotriene are then obtained. Usually test compounds are examined initially at 30 uM on resting tension of the tissues without any added agonist or antagonist to determine if the compound has any possible intrinsic activity. The tissues are washed, and the test compound is added again. Leukotriene is added after the desired pre-incubation time. The intrinsic activity of the compounds, and their effect on leukotriene-induced contractions are then recorded.
The concentration required for 50% inhibition of 0.2 nM leukotriene C4 -induced contraction of guinea pig peripheral strips or degree of inhibitory activity for representative compounds of the present invention is shown in Table I denoted by SRS-A.

[2] = tested on: SRS-A (slow reacting substances of anaphylaxis), anaphylactic bronchoconstriction in guinea pigs; assay: in vivo modulators of SRS-A: Bronchial Anaphylaxis in Guinea Pigs with Enhanced Leukotrines (BAGEL); design: species or system guinea pig; key: I: inactive; L: low activity; M: moderate activity; H: high activity; conditions: 15 min before ovalbumin challenge
Method: Representative compounds of the present invention were also tested in the following in vivo model.
This test, known as the Bronchial Anaphylaxis in Guinea Pigs with Enhanced Leukotrines (BAGEL), is based on the procedure published in Agents and Actions, Vol. 11, pp. 396-401, 1981, and is performed with guinea pigs actively immunized (14 days) with ovalbumin (2.7 mg/kg, i.p.) and B.pertussis (5×10^9 organisms) as an adjuvant. Prior to challenge with antigen (ovalbumin), the animals are anesthetized and prepared for monitoring pulmonary dynamics by whole body plethysmography. They are treated with an H1 antihistamine (methapyrilene, 2 mg/kg, i.v.) and cyclooxygenase inhibitor (indomethacin; 20 mg/kg, i.p.) in order to enhance the SRS-A component of anaphylactic bronchoconstriction. Bronchoconstriction is quantified as the maximum increase in airway resistance following antigen challenge. The drug is administered either i.p. 10 minutes before challenge, or i.d. 15 minutes before challenge.

[3] = tested on: Human PMN (5-lipoxygenase pathway); assay: LOX, Human PMN; type: cell-based; design: key to LOX degree of activity, Human PMN: I: inactive; L: low activity; M: moderate activity; H: high activity
[4] = arachidonic acid + Ca ionophore A23187, 30° C., read-out: LOX I50 (concentration required for 50% inhibition of the 5-lipoxygenase pathway)

IC50 (5-lipoxygenase pathway; [4]) [nM] | IC50 [1] [nM] | SMILES | LOX degree of activity (5-lipoxygenase pathway) | SRS-A degree of inhibitory activity [1] | further results
 |  | CCOC(=O)C=C1CSc2ccccc2N1 | I | M | 
1600 | 18000 | O=C(C=C1CSc2ccccc2N1)Nc1ccccc1 |  |  | 
 |  | O=C(C=C1CSc2ccccc2N1)Nc1ccccc1Cl | M |  | 
1700 |  | CCOC(=O)C(Cl)=C1CSc2ccccc2N1 |  | M | BAGEL activity ([2]; 200 mg/kg i.d.): L
1200 | 20000 | CCOC(=O)C(Cl)=C1CSc2ncccc2N1 |  |  | BAGEL activity ([2]; 200 mg/kg i.d.): M-H; IC50 ([3]; Homo sapiens, read-out: LOX I50, Human PMN): 1000 nM
 | 25000 | N#CC(C(N)=O)=C1CSc2ccccc2N1 | I |  | 
 |  | CCOC(=O)C=C(C(=O)OCC)C(C(=O)OCC)=C1CSc2ccccc2N1 |  | I | IC50 (5-lipoxygenase pathway; cell prints 3μ .M, read-out: LOX I50, unit printed in the cell): 3000 nM; BAGEL activity ([2]; 30 mg/kg i.d.): H; LOX degree of activity, Human PMN ([3]; Human PMN, 135 μM): L
12000 |  | CCOC(=O)c1c2csc3ccccc3n-2c(=O)c1O |  | I | 
